Laboratory results reported in patent publication US20180303798A1 (Ares Trading S.A., priority 2012, published 2018).

Tests used:
[1] = tested on: patients subjected to assisted fertilization; assay: Clinical study 1: multi-centre study, endometrial irrigation with melatonin in culture medium at oocyte retrieval; assay type: in vivo, human
Text: (§1) Said culture medium is normally used to improve cleavage, differentiation and expansion in vitro of blastocyst. The medium contains D-glucose, all the 20 essential L-amino acids, L-taurine, Gentamicin, human serum albumin, calcium lactate, calcium pantothenate; sodium chloride, sodium bicarbonate and sodium pyruvate; potassium chloride, potassium phosphate; magnesium chloride, magnesium sulfate; purified water. Further characteristics of the culture medium: • pH: 7.5-7.8 (use of bicarbonate buffer) • Osmolarity: 280-290 mOsm/kg • Endotoxins: <0.4 EU/ml • MEA: ≥80% • 2) physiological solution (Clinical Trial 2)
In the logistic regression, OR corresponds to the antilogarithm on a natural basis of the regression coefficient β associated with each covariate in the regression model.
The value thus calculated expresses therefore the advantage obtained through each procedure, irrespective of the other conditions.
The two-tailed confidence intervals at 95% (IF95%) of the OR have been calculated through the formula of […]
For the latter, the CI (confidence interval or trust interval) has been calculated through statistical analysis (IMPRUN. TXT) of linear regression with more variables of 95%.

[2] = tested on: patients subjected to assisted reproduction; assay: Clinical study 2: single centre study, endometrial washing with melatonin in sterile physiological solution; assay type: in vivo, human
Text: as §1
Restricted criteria of inclusion have been used for selecting the patient population involved in the studies: • 3) age ≥20 and <44 years • 4) body mass index (BMI) ≥20 and ≤28 kg/m^2 • 5) Basal FSH≤19 UI/l • 6) Male and female factors
The second clinical study with a single prospective centre involved 64 patients in the group of control and 92 patients in the group of study.
In the case of the physiological solution, the catheter can be pre-filled with physiological solution supplemented with melatonin.
The catheter has been introduced in the internal uterine orifice with the same steps through which the operator carries out the conventional embryo-transfer (ET).
The single centre study involved 64 patients in the group of control and 92 patients in the group of study.
The primary endpoint of the study is the rate of clinical pregnancies (fetal heart) due to embryonic transfer (ET); the secondary endpoint is the rate of ongoing pregnancies and aborts.

endometrial tissue = assay: In vitro culture of endometrium with melatonin, visualization of pinopodes by electron microscopy (SEM); assay type: cell-based, human; details: co-culture from 3 to 5 days of endometrial tissue with permanent addition of melatonin
Procedure: The melatonin and the culture medium used are the same as those used for the in vivo study.
It has been used a field emission at high resolution electron microscope, FE HITACHI S 4000 model, operating at […].
Soon after retrieval from the patient, small pieces of endometrial tissue of about 1 mm in size have been placed in a fixing solution composed of paraformaldehyde 1% and glutaraldehyde 0.5% in buffer cacodylate 0.1 M pH 7.2 for 3 hours.
After this fixing the pieces are washed in PBS 20 min×3 times (1 hour total) and then the post fixing is carried out in a solution of osmium tetroxide 2% and potassium ferrocyanide 2.5%.
The preparation is kept in the dark for 3 hours to be then accurately washed rotating in PBS, with 4 replacements of 20 min each.
It follows dehydration of the samples of tissue with acetone in ascending succession with 3 replacements in 1 hour for each gradation 50%-70%-80%-90%-95% and 2 replacements with pure acetone. […]
The samples are fixed through a special electrically conductive double sided adhesive and for their arrangement two very thin needles are used and the preparation is ready to be observed with scanning electron microscope (SEM). […]

HEC-1-A cell line [3] = assay: Antioxidant activity assay (ROS by FACS); assay type: cell-based, human
Procedure: They were used in different concentrations (i.e. 40 nM, 80 nM, 170 nM and 340 nM, corresponding respectively to 9.4×10^−9 g/ml, 18×10^−9 g/ml, 40×10^−9 g/ml and 80×10^−9 g/ml).
(§2) HEC-1A cells were obtained by ATCC and culture following instructions of the provider.
(§3) HEC-1-A is an epithelial stabilized cell line isolated by H. Kuramoto from adenocarcinoma patient (21), which provide a valuable model to study endometrial epithelial cell in vitro (22).
Reactive Oxidative Substances (ROS) were measured by FACS as previously described by Italiano et al. (23) in two independent replicates.

HEC-1-A cell line [4] = assay: Apoptosis assay (Propidium Iodide staining and FACS, sub-G1 events); assay type: cell-based, human; details: 24 hours
Procedure: as §2, §3
The apoptosis (% cell death) of the endometrial cells is a physiological phenomenon generally observed at 10-20% rate during cell culture.
Apoptosis levels were assayed by Propidium Iodide staining and FACS analysis. Percentage of sub-G1 events is shown for one of two experiments performed.

Ishikawa cells = details: effect produced through MT2 receptors; reference (7); cited from earlier work
[5] = number of patients out of 92 ET
[6] = 170 nM (40 ng/ml) compound, H2O2 200 mcg/ml

Row | Structure (SMILES) | number of pregnancies with respect to the other two groups ([1]; irrigation or washing with melatonin vs physiological solution and no irrigation) | result of endometrial irrigation at lower concentration ([1]; preceding studies with one third and the half of the final concentration 10×10^−9 g/ml, not shown data) | rate of clinical pregnancies and ongoing pregnancies vs the group of control ([2]; endometrial washing with solutions containing melatonin, infertile female population) | Aborts ([2]; group of study) | BHCG Positive (on total of ET) ([2]; group of study, 92 ET) | rate of ongoing pregnancies (Ongoing Pregnancy/ET) ([2]; group of study, 92 ET) | rate of clinical pregnancies (Clinical Pregnancy/ET) ([2]; group of study, 92 ET, melatonin 10×10^−9 g/ml in physiological solution) | BHCG Positive (on total of ET), No [2, 5] | Clinical Pregnancy/ET, No [2, 5] | Ongoing Pregnancy/ET, No [2, 5] | Aborts, No ([2]; number of patients, group of study) | pinopodes (SEM) with respect to the culture of control (endometrial tissue) | anti-oxidative effect (ROS, FACS) (HEC-1-A cell line [3]; 170 nM (40 ng/ml) compound, H2O2 20 mcg/ml) | protection of cell line from oxidation (ROS, FACS) (HEC-1-A cell line [3]; [6]) | effect on apoptosis (% cell death, sub-G1) (HEC-1-A cell line [4]; all the concentrations tested (80, 170, 340 nM)) | proliferation of atypical endometrial cells (Ishikawa) (Ishikawa cells) | anti-oxidative effect (ROS, FACS) (HEC-1-A cell line [3]; dose increased up to 340 nM, H2O2 200 mcg/ml, data not shown) | effect on apoptosis (% cell death, sub-G1) (HEC-1-A cell line [4]; up to concentration of 170 nM) | effect on apoptosis (% cell death, sub-G1) (HEC-1-A cell line [4]; at 170 and 340 nM)
1 | COc1ccc2[nH]cc(CCNC(C)=O)c2c1 [melatonin, N-acetyl-5-methoxytryptamine] | double the number of pregnancies | without giving the same results | double | 11.8% | 44.6% | 32.6% | 37% | 41 | 34 | 30 | 4 | unquestionable increase of pinopodes | same anti-oxidative effect | continued to protect cell line from oxidation | protective effect on apoptosis | inhibits proliferation |  |  | 
2 | COc1cc2c(CCNC(C)=O)c[nH]c2cc1O [6-hydroxy-melatonin, 6-hydroxymelatonin] |  |  |  |  |  |  |  |  |  |  |  |  |  | does not |  |  | anti-oxidative effect of this analogue is reached | no effect on apoptosis | 
3 | COc1ccc2cccc(CCNC(C)=O)c2c1 [agomelatine] |  |  |  |  |  |  |  |  |  |  |  |  |  | continued to protect cell line from oxidation |  |  |  |  | protective effect
